Values quoted from earlier work, collected in patent US12527751B2, “Oral thin film with high active agent loading” (LTS LOHMANN THERAPIE-SYSTEME AG, priority 2017, dated 2026).

Settings: compared with (R) ketamine

## CNC1(c2ccccc2Cl)CCCCC1=O (racemic) [(S) ketamine, (S)-(±)-2-(2-chlorophenyl)-2-(methylamino)cyclohexan-1-one]
  Analgesic and anaesthetic potency relative to the (R) form: approximately three times higher
